Read-outs that look alike come from different tables or passages of the source.
How the values were obtained:
Assay type in all cases: in vivo
[1] = system: barnyardgrass (Echinochloa crus-galli); experiment: Test D flooded paddy test plant response; conditions: Flood (flooded paddy test), visual rating on scale 0 to 100 (0 no effect, 100 complete control), 13 to 15 days
Method in brief: (§1)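 Plants at 2-leaf stage in pots flooded 3 cm above soil; compounds applied directly into paddy water, depth kept throughout. After 13-15 days in greenhouse, visual rating against controls on 0-100 scale (100 = complete control).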

[2] = system: ducksalad (Heteranthera limosa); experiment: Test D flooded paddy test plant response; conditions: Flood (flooded paddy test), visual rating on scale 0 to 100 (0 no effect, 100 complete control), 13 to 15 days
Method in brief: as §1

rice (Oryza sativa) = experiment: Test D flooded paddy test plant response; conditions: Flood (flooded paddy test), visual rating on scale 0 to 100 (0 no effect, 100 complete control), 13 to 15 days
Method in brief: as §1

[3] = system: small-flower umbrella sedge (Cyperus difformis); experiment: Test D flooded paddy test plant response; conditions: Flood (flooded paddy test), visual rating on scale 0 to 100 (0 no effect, 100 complete control), 13 to 15 days
Method in brief: as §1

[4] = system: barnyardgrass (Echinochloa crus-galli); experiment: Test F pre-/postemergence plant response; conditions: Echinochloa crus-galli, scale 0 to 100, read-out: Plant response rating, Barnyardgrass
Method in brief: (§2)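 Seeds were sown in silt loam soil and sprayed preemergence; separately, plants at the 1- to 4-leaf stage (2 to 18 cm) received postemergence sprays. Test chemicals were in a non-phytotoxic solvent mixture with surfactant. After 14 to 21 days in a greenhouse, injury was visually rated 0 (no effect) to 100 (complete control) against untreated controls.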

[5] = system: dayflower (Virginia (VA) dayflower, Commelina virginica); experiment: Test F pre-/postemergence plant response; conditions: Commelina virginica, scale 0 to 100, read-out: Plant response rating, Dayflower, VA
Method in brief: as §2

[6] = system: field bindweed (Convolvulus arvensis); experiment: Test F pre-/postemergence plant response; conditions: Convolvulus arvensis, scale 0 to 100, read-out: Plant response rating, Field Bindweed
Method in brief: as §2

[7] = system: giant foxtail (Setaria faberii); experiment: Test F pre-/postemergence plant response; conditions: Setaria faberi, pre-emergence, scale 0 to 100, read-out: Plant response rating, Foxtail, Giant
Method in brief: as §2

[8] = system: hairy beggarticks (Bidens pilosa); experiment: Test F pre-/postemergence plant response; conditions: Bidens pilosa, scale 0 to 100, read-out: Plant response rating, Beggarticks
Method in brief: as §2

[9] = system: johnsongrass (Sorghum halepense); experiment: Test F pre-/postemergence plant response; conditions: Sorghum halepense, pre-emergence, scale 0 to 100, read-out: Plant response rating, Johnsongrass
Method in brief: as §2

[10] = system: morningglory (Ipomoea coccinea); experiment: Test F pre-/postemergence plant response; conditions: Ipomoea, pre-emergence, scale 0 to 100, read-out: Plant response rating, Morningglory
Method in brief: as §2

[11] = system: ragweed (common ragweed, Ambrosia elatior); experiment: Test F pre-/postemergence plant response; conditions: Ambrosia artemisiifolia, pre-emergence, scale 0 to 100, read-out: Plant response rating, Ragweed
Method in brief: as §2

[12] = system: velvetleaf (Abutilon theophrasti); experiment: Test F pre-/postemergence plant response; conditions: Abutilon theophrasti, pre-emergence, scale 0 to 100, read-out: Plant response rating, Velvetleaf
Method in brief: as §2

[13] = system: waterhemp (common waterhemp, Amaranthus rudis); experiment: Test F pre-/postemergence plant response; conditions: Amaranthus tuberculatus, scale 0 to 100, read-out: Plant response rating, Waterhemp
Method in brief: as §2

[14] = system: yellow nutsedge (Cyperus esculentus); experiment: Test F pre-/postemergence plant response; conditions: Cyperus, pre-emergence, scale 0 to 100, read-out: Plant response rating, Nutsedge, Yellow
Method in brief: as §2

[15] = post-emergence, 8 g ai/ha Postemergence
[16] = post-emergence, 16 g ai/ha Postemergence
[17] = post-emergence, 31 g ai/ha Postemergence
[18] = post-emergence, 62 g ai/ha Postemergence
[19] = post-emergence, 125 g ai/ha Postemergence
[20] = pre-emergence, 8 g ai/ha Preemergence
[21] = pre-emergence, 16 g ai/ha Preemergence
[22] = pre-emergence, 31 g ai/ha Preemergence
[23] = pre-emergence, 62 g ai/ha Preemergence
[24] = pre-emergence, 125 g ai/ha Preemergence

With `FC(F)c1cc(-c2ccccc2Oc2ncc(Cl)cn2)on1` [Compound 53, 5-chloro-2-[2-[3-(difluoromethyl)-5-isoxazolyl]phenoxy]pyrimidine] the “Plant response rating, Barnyardgrass” value ([1]; 31 g ai/ha) was 0, the “Plant response rating, Barnyardgrass” value ([1]; 62 g ai/ha) was 0 and the “Plant response rating, Barnyardgrass” value ([1]; 125 g ai/ha) was 0. The “Plant response rating, Barnyardgrass” value ([1]; 250 g ai/ha) was 0, the “Plant response rating, Ducksalad” value ([2]; 31 g ai/ha) was 40 and the “Plant response rating, Ducksalad” value ([2]; 62 g ai/ha) was 50. For the same molecule, the “Plant response rating, Ducksalad” value ([2]; 125 g ai/ha) was 80, the “Plant response rating, Ducksalad” value ([2]; 250 g ai/ha) was 80 and the “Plant response rating, Rice” value (rice (Oryza sativa); 31 g ai/ha) was 0. For the same molecule, the “Plant response rating, Rice” value (rice (Oryza sativa); 62 g ai/ha) was 0, the “Plant response rating, Rice” value (rice (Oryza sativa); 125 g ai/ha) was 0 and the “Plant response rating, Rice” value (rice (Oryza sativa); 250 g ai/ha) was 0. For the same molecule, the “Plant response rating, Sedge, Umbrella” value ([3]; 31 g ai/ha) was 0, the “Plant response rating, Sedge, Umbrella” value ([3]; 62 g ai/ha) was 0 and the “Plant response rating, Sedge, Umbrella” value ([3]; 125 g ai/ha) was 70. For the same molecule, the “Plant response rating, Sedge, Umbrella” value ([3]; 250 g ai/ha) was 75, the pest or weed control at 8 g/ha [4, 15] was 0% and the pest or weed control at 16 g/ha [4, 16] was 0%. The pest or weed control at 31 g/ha [4, 17] was 0%, the pest or weed control at 62 g/ha [4, 18] was 0% and the pest or weed control at 125 g/ha [4, 19] was 10%. The pest or weed control at 8 g/ha [4, 20] was 0%, the pest or weed control at 16 g/ha [4, 21] was 0% and the pest or weed control at 31 g/ha [4, 22] was 0%. It also gave a pest or weed control at 62 g/ha [4, 23] of 20%, a pest or weed control at 125 g/ha [4, 24] of 50% and a pest or weed control at 8 g/ha [5, 15] of 30%. The pest or weed control at 16 g/ha [5, 16] was 40%, the pest or weed control at 31 g/ha [5, 17] was 30% and the pest or weed control at 62 g/ha [5, 18] was 50%. The pest or weed control at 125 g/ha [5, 19] was 60%, the pest or weed control at 8 g/ha [5, 20] was 0% and the pest or weed control at 16 g/ha [5, 21] was 0%. For the same molecule, the pest or weed control at 31 g/ha [5, 22] was 0%, the pest or weed control at 62 g/ha [5, 23] was 50% and the pest or weed control at 125 g/ha [5, 24] was 95%. For the same molecule, the pest or weed control at 8 g/ha [6, 15] was 30%, the pest or weed control at 16 g/ha [6, 16] was 55% and the pest or weed control at 31 g/ha [6, 17] was 50%. For the same molecule, the pest or weed control at 62 g/ha [6, 18] was 50%, the pest or weed control at 125 g/ha [6, 19] was 60% and the pest or weed control at 8 g/ha [6, 20] was 0%. The pest or weed control at 16 g/ha [6, 21] was 0%, the pest or weed control at 31 g/ha [6, 22] was 0% and the pest or weed control at 62 g/ha [6, 23] was 0%. For the same molecule, the pest or weed control at 125 g/ha [6, 24] was 0%, the pest or weed control at 8 g/ha ([7]; 8 g ai/ha Preemergence) was 0% and the pest or weed control at 16 g/ha ([7]; 16 g ai/ha Preemergence) was 0%. It also gave a pest or weed control at 31 g/ha ([7]; 31 g ai/ha Preemergence) of 20%, a pest or weed control at 62 g/ha ([7]; 62 g ai/ha Preemergence) of 70% and a pest or weed control at 125 g/ha ([7]; 125 g ai/ha Preemergence) of 95%. The pest or weed control at 8 g/ha [8, 15] was 15%, the pest or weed control at 16 g/ha [8, 16] was 30% and the pest or weed control at 31 g/ha [8, 17] was 40%. It also gave a pest or weed control at 62 g/ha [8, 18] of 50%, a pest or weed control at 125 g/ha [8, 19] of 60% and a pest or weed control at 8 g/ha [8, 20] of 0%. For the same molecule, the pest or weed control at 16 g/ha [8, 21] was 0%, the pest or weed control at 31 g/ha [8, 22] was 0% and the pest or weed control at 62 g/ha [8, 23] was 30%. The pest or weed control at 125 g/ha [8, 24] was 20%, the pest or weed control at 8 g/ha ([9]; 8 g ai/ha Preemergence) was 0% and the pest or weed control at 16 g/ha ([9]; 16 g ai/ha Preemergence) was 0%. The pest or weed control at 31 g/ha ([9]; 31 g ai/ha Preemergence) was 0%, the pest or weed control at 125 g/ha ([9]; 125 g ai/ha Preemergence) was 5% and the pest or weed control at 62 g/ha ([9]; Preemergence) was 0%. For the same molecule, the pest or weed control at 8 g/ha ([10]; 8 g ai/ha Preemergence) was 0%, the pest or weed control at 16 g/ha ([10]; 16 g ai/ha Preemergence) was 0% and the pest or weed control at 31 g/ha ([10]; 31 g ai/ha Preemergence) was 0%. The pest or weed control at 125 g/ha ([10]; 125 g ai/ha Preemergence) was 0%, the pest or weed control at 62 g/ha ([10]; Preemergence) was 0% and the pest or weed control at 8 g/ha ([11]; 8 g ai/ha Preemergence) was 0%. The pest or weed control at 16 g/ha ([11]; 16 g ai/ha Preemergence) was 0%, the pest or weed control at 31 g/ha ([11]; 31 g ai/ha Preemergence) was 0% and the pest or weed control at 125 g/ha ([11]; 125 g ai/ha Preemergence) was 40%. For the same molecule, the pest or weed control at 62 g/ha ([11]; Preemergence) was 30%, the pest or weed control at 8 g/ha ([12]; 8 g ai/ha Preemergence) was 0% and the pest or weed control at 16 g/ha ([12]; 16 g ai/ha Preemergence) was 65%. The pest or weed control at 31 g/ha ([12]; 31 g ai/ha Preemergence) was 90%, the pest or weed control at 125 g/ha ([12]; 125 g ai/ha Preemergence) was 100% and the pest or weed control at 62 g/ha ([12]; Preemergence) was 100%. For the same molecule, the pest or weed control at 8 g/ha [13, 15] was 80%, the pest or weed control at 16 g/ha [13, 16] was 95% and the pest or weed control at 31 g/ha [13, 17] was 98%. For the same molecule, the pest or weed control at 62 g/ha [13, 18] was 100%, the pest or weed control at 125 g/ha [13, 19] was 100% and the pest or weed control at 8 g/ha [13, 20] was 0%. It also gave a pest or weed control at 16 g/ha [13, 21] of 0%, a pest or weed control at 31 g/ha [13, 22] of 95% and a pest or weed control at 125 g/ha [13, 24] of 100%. For the same molecule, the pest or weed control at 62 g/ha ([13]; pre-emergence, Preemergence) was 100%, the pest or weed control at 8 g/ha ([14]; 8 g ai/ha Preemergence) was 0% and the pest or weed control at 16 g/ha ([14]; 16 g ai/ha Preemergence) was 0%. It also gave a pest or weed control at 31 g/ha ([14]; 31 g ai/ha Preemergence) of 0%, a pest or weed control at 125 g/ha ([14]; 125 g ai/ha Preemergence) of 20% and a pest or weed control at 62 g/ha ([14]; Preemergence) of 0%.
